Assay [1] can be described thus: Inhibition of HCV NS3/4A protease. Set-up: species or system Hepacivirus hominis.
Assay [2] can be described thus: Inhibition of HCV NS3/4A protease using AcDTEDVVP(Nva)-O-PAP as substrate pretreated with substrate for 3 mins followed by enzyme addition measured after 60 mins by spectrophotometric method. Also noted: species or system Hepacivirus hominis.

This note sets out measurements from ChEMBL document CHEMBL4020775, “QSAR studies of the bioactivity of hepatitis C virus (HCV) NS3/4A protease inhibitors by multiple linear regression (MLR) and support vector machine (SVM)” (Bioorg Med Chem Lett, 2017).

As a reminder, the IC50 is the concentration that inhibits the measured activity by half. Read a high IC50 as weaker potency. In assay [1], `C=C[C@@H]1C[C@]1(NC(=O)[C@@H]1C[C@@H](Oc2ncc(OC)c3ccc(Cl)cc23)CN1C(=O)[C@@H](NC(=O)OC(C)(C)C)C(C)(C)C)C(=O)NS(=O)(=O)C1CC1` [ASUNAPREVIR] gave an IC50 of 2.6 nM.
By Ki is commonly meant the equilibrium dissociation constant of an inhibitor or competing ligand from its target. `CC(C)(C)NC(=O)N[C@H](C(=O)N1C[C@H]2[C@@H]([C@H]1C(=O)NC(CC1CCC1)C(=O)C(N)=O)C2(C)C)C(C)(C)C` (some centres undefined) [BOCEPREVIR]: the Ki in assay [2] stood at 14 nM.
In assay [1], `Cc1cnc(C(=O)N[C@H]2CCCCC/C=C\[C@@H]3C[C@@]3(C(=O)NS(=O)(=O)C3CC3)NC(=O)[C@@H]3C[C@@H](Oc4nc5ccccc5c5ccccc45)CN3C2=O)cn1` [PARITAPREVIR] returned an IC50 of 0.18 nM.
Still for that read-out and setting: under `CCC[C@H](NC(=O)[C@@H]1[C@H]2CCC[C@H]2CN1C(=O)[C@@H](NC(=O)[C@@H](NC(=O)c1cnccn1)C1CCCCC1)C(C)(C)C)C(=O)C(=O)NC1CC1` [TELAPREVIR] stands 1030 nM.
